Legend:
[1] = tested on: rats which have learnt to self-administer nicotine intravenously; assay: self-administration of nicotine in rats (model predicting effects on nicotine dependence); assay type: in vivo; details: intravenous nicotine self-administration
From the text: The effects of compound A were studied in rats on a model which predicts the effects on nicotine dependence: the self-administration of nicotine according to W.T. Corrigal and al. Psychopharmacology, 1989, 99, 473-478.

[2] = tested on: individuals who smoked more than 15 cigarettes a day and who showed symptoms of nicotine dependence; assay: double-blind placebo-controlled study of withdrawal from tobacco in smokers; assay type: in vivo, human; details: 40 mg per day for 10 weeks, including 2 weeks before start of withdrawal; in particular during the last 4 weeks of treatment; confirmed by exhaled carbon monoxide and plasma cotinine
Procedure: The patients received 40 mg of compound A per day for 10 weeks, including 2 weeks before the start of the period of withdrawal from tobacco. […] The withdrawal from tobacco was confirmed by weekly measurement of the levels of carbon monoxide exhaled and of cotinine in the plasma.

## Cc1c(C(=O)NN2CCCCC2)nn(-c2ccc(Cl)cc2Cl)c1-c1ccc(Cl)cc1 [compound A, N-piperidino-5-(4-chloro-phenyl)-1-(2,4-dichlorophenyl)-4-methylpyrazole-3-carboxamide]
[1]; compound A at a dose of 0.3 mg/kg
  number of nicotine injections: reduces, in a statistically significant manner
[1]; compound A at a dose of 1 mg/kg
  number of nicotine injections: reduces, in a statistically significant manner
[2]
  level of withdrawal from tobacco versus placebo group: greater level of withdrawal

Reference: patent publication US20050187253A1, “Medicinal kit to quit tobacco consumption comprising central cannabinoid receptor antagonist” (Sanofi-Aventis, priority 2000, published 2005)
